Measurements from patent US20240262814A1, “MODULATORS OF TREX1” (Constellation Pharmaceuticals, Inc., priority 2021, published 2024).

Biological target: T1, human TREX1 (Homo sapiens, UniProt Q9NSU2)
T1 construct: N-terminally His-Tev tagged full length human TREX1; made in house; host or cells: E. coli
T1 sequence (Q9NSU2 1-314): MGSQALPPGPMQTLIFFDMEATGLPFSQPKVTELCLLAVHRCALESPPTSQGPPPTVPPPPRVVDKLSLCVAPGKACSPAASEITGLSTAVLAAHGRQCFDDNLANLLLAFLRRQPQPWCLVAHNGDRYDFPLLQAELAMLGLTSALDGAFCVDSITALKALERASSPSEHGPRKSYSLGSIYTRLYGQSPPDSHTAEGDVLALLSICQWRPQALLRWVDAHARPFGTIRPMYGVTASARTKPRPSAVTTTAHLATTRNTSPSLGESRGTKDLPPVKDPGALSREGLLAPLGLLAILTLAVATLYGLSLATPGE
Assay: TREX1 kinetics assays (TR-FRET association and dissociation with biotinylated probe)
Assay type: binding
Conditions: for koff / kon: hTREX1, 25° C., global fit Kintek Explorer; for Kd / residence time: hTREX1, kinetic data
Procedure: Compound binding kinetics were assessed using a pair of TR-FRET assays which measure the proportion of protein bound to a biotinylated TREX1 inhibitor (“probe”).
N-terminally His-Tev tagged full length human TREX1 (expressed in E. coli and purified in house), complexed with Eu-W 1024-anti-6×His (“Eu”; PerkinElmer) in reaction buffer (50 mM Tris, 150 mM NaCl, 2 mM DTT, 0.1 mg/mL BSA, 0.01% (w/v) Tween-20, 5 mM MgCl2, pH 7.4) was combined with an equal volume of test compound in reaction buffer and incubated at 25° C. Concentrations at this stage were 1 nM TREX1/Eu complex, and four concentrations of compound (diluted from 10 mM stocks in 100% DMSO). At defined time points, 18 μL of this mixture was withdrawn and combined with 2 p L probe to a final concentration of 1 μM probe. After incubating for 30 seconds, 18 μL was withdrawn and combined with 2 μL streptavidin-allophycocyanin (“SA-APC”; PerkinElmer) to a final concentration of 1.5 μM SA-APC. Fifteen μL of this mixture was then immediately transferred to a 384-well Black ProxiPlate Plus (PerkinElmer) and read in an EnVision plate reader (PerkinElmer) measuring fluorescence at 615 nm and 665 nm following excitation w/337 nm laser light. Final concentrations were 0.8 nM TREX1/Eu complex, 0.9 μM probe, and 1.5 μM SA-APC.
N-terminally His-Tev tagged full length human TREX1 (expressed in E. coli and purified in house), complexed with Eu-W1024-anti-6×His (“Eu”; PerkinElmer) in reaction buffer (50 mM Tris, 150 mM NaCl, 2 mM DTT, 0.1 mg/mL BSA, 0.01% (w/v) Tween-20, 5 mM MgCl2, pH 7.4) was combined with an equal volume of test compound in reaction buffer. Concentrations at this stage were 100 nM TREX1/Eu complex and 100 nM test compound (diluted from 10 mM stocks in 100% DMSO). Following an equilibration period of at least an hour at 25° C., this mixture was diluted 100-fold into reaction buffer containing 1 μM probe, and incubated at 25° C. At defined time points, 36 μL of the reaction mixture was withdrawn and combined with 4 μL streptavidin-allophycocyanin (“SA-APC”; PerkinElmer) to a final concentration of 1.5 μM SA-APC. Fifteen μL of this mixture was then immediately transferred to duplicate wells of a 384-well Black ProxiPlate Plus (PerkinElmer) and read in an EnVision plate reader (PerkinElmer) measuring fluorescence at 615 nm and 665 nm following excitation w/ 337 nm laser light.
The TR-FRET signal, a ratio of 665 nm/615 nm emitted light, was converted to fraction enzyme bound to test compound by normalizing to low signal (no enzyme or test compound) and high signal (no test compound) controls. Data from both association and dissociation experiments were fitted globally using Kintek Explorer software, which computes the rate constants directly.

## CC(c1nc(C(=O)Nc2cnoc2)c(O)c(=O)n1C)C(c1ccccc1)c1ccccc1 (single isomer, unassigned) [Example 1 Isomer 2, 2-(1,1-diphenylpropan-2-yl)-5-hydroxy-N-(isoxazol-4-yl)-1-methyl-6-oxo-1,6-dihydro pyrimidine-4-carboxamide]
  koff: 0.000192 s⁻¹
  kon: 50300 M⁻¹ s⁻¹
  Kd: 3.8 nM
  residence time: 87 min

## C[C@H](c1nc(C(=O)Nc2cnoc2)c(O)c(=O)n1C)[C@H](c1ccccc1)c1ccccc1Cl (single isomer, unassigned) [Example 2 Isomer 3, 2-(1-(2-chlorophenyl)-1-phenylpropan-2-yl)-5-hydroxy-N-(isoxazol-4-yl)-1-methyl-6-oxo-1,6-dihydropyrimidine-4-carboxamide]
  koff: 5.48e-05 s⁻¹
  kon: 159000 M⁻¹ s⁻¹
  Kd: 0.345 nM
  residence time: 304 min

## CC(c1nc(C(=O)Nc2cnoc2)c(O)c(=O)n1C)C(c1ccccc1)c1ccccc1C#N (single isomer, unassigned) [Example 3 Isomer 4]
  koff: 3.6e-05 s⁻¹
  kon: 164000 M⁻¹ s⁻¹
  Kd: 0.219 nM
  residence time: 463 min

## CC(c1nc(C(=O)Nc2cnoc2)c(O)c(=O)n1C)C(c1ccccc1C#N)c1ccccc1C#N (single isomer, unassigned) [Example 4 Isomer 2]
  koff: 3.83e-05 s⁻¹
  kon: 907000 M⁻¹ s⁻¹
  Kd: 0.042 nM
  residence time: 435 min

## CC(c1nc(C(=O)Nc2cnoc2)c(O)c(=O)n1C)C(c1ccccc1)c1cc(F)ccc1C#N (single isomer, unassigned) [Example 6 Isomer 4]
  koff: 3.37e-05 s⁻¹
  kon: 173000 M⁻¹ s⁻¹
  Kd: 0.194 nM
  residence time: 495 min

## CC(c1nc(C(=O)Nc2cnoc2)c(O)c(=O)n1C)C(c1ccccc1)c1cc(Cl)ccc1C#N (single isomer, unassigned) [Example 8 Isomer 2]
  koff: 4.17e-05 s⁻¹
  kon: 116000 M⁻¹ s⁻¹
  Kd: 0.361 nM
  residence time: 400 min

## CC(c1nc(C(=O)Nc2cnoc2)c(O)c(=O)n1C)C(c1ccccc1)c1ccc(Cl)cc1C#N (single isomer, unassigned) [Example 9 Isomer 4]
  koff: 2.07e-05 s⁻¹
  kon: 178000 M⁻¹ s⁻¹
  Kd: 0.116 nM
  residence time: 806 min

## CC(c1nc(C(=O)Nc2cnoc2)c(O)c(=O)n1C)C(c1ccccc1Cl)c1ccccc1C#N (single isomer, unassigned) [Example 10 Isomer 1]
  koff: 3.15e-05 s⁻¹
  kon: 448000 M⁻¹ s⁻¹
  Kd: 0.07 nM
  residence time: 529 min

## CC(c1nc(C(=O)Nc2cnoc2)c(O)c(=O)n1C)C(c1cc(F)cc(F)c1)c1ccccc1C#N (single isomer, unassigned) [Example 11 Isomer 3]
  koff: 1.92e-05 s⁻¹
  kon: 257000 M⁻¹ s⁻¹
  Kd: 0.075 nM
  residence time: 870 min

## C[C@H](c1nc(C(=O)Nc2cnoc2)c(O)c(=O)n1C)C(c1ccccc1Cl)c1ccccc1Cl (single isomer, unassigned) [Example 15 Isomer 1, 2-(1,1-bis(2-chlorophenyl)propan-2-yl)-5-hydroxy-N-(isooxazol-4-yl)-1-methyl-6-oxo-1,6-dihydropyrimidine-4-carboxamide]
  koff: 4.77e-05 s⁻¹
  kon: 260000 M⁻¹ s⁻¹
  Kd: 0.183 nM
  residence time: 350 min
